Laboratory results taken from patent US20260374753A1, “NOVEL COMPOUND AND PREPARATION METHOD THEREFOR” (ASTRION INC., priority 2023, published 2026).

Key:
[1] = system: EGFR; experiment: Western blot comparison with EGFR inhibitor and ANO1 inhibitor: EGFR expression; assay type: cell-based, human; conditions: U87-MG; 4 μM AON-MG23-02; 48 hours; vs untreated, 2 μM Osimertinib, 100 μM CaCCinh-A01, and their combination
Description: (§1) The inhibitory effects of the compound AON-MG23-02 of the present invention, the EGFR inhibitor Osimertinib, and the ANO1 inhibitor CaCCinh-A01 on the expression of ANO1, EGFR, and pEGFR proteins in a glioblastoma cell line were compared. A human glioblastoma cell line U87-MG was seeded at a density of 100×10^4 cells/dish in a 60 mm dish, and cultured for 24 hours. Thereafter, the cells were treated with 4 μM of AON-MG23-02, 2 μM of the EGFR inhibitor Osimertinib, 100 μM of the ANO1 inhibitor CaCCinh-A01, or a combination of 2 μM of Osimertinib and 100 μM of CaCCinh-A01, and cultured for 48 hours. The cultured cells were harvested and the harvested cells were lysed for Western blotting. An anti-ANO1 antibody (Abcam, ab53212), an anti-pEGFR antibody (Cell Signaling, #4407S), an anti-EGFR antibody (Cell Signaling, #4267S), and an anti-ACTIN antibody (sigma, #A2066) were used as antibodies for Western blotting. Protein concentration was quantified using the BSA method (a protein quantitation assay, a bovine serum albumin assay) (Pierce, Cat. 23225). […] The amount of each protein was quantified and analyzed using Image J software.

[2] = system: U87-MG; experiment: Matrigel invasion comparison with EGFR inhibitor and ANO1 inhibitor in human glioblastoma; assay type: cell-based; conditions: 4 μM AON-MG23-02, 16 hours, vs untreated, Osimertinib, 100 μM CaCCinh-A01
Description: A human glioblastoma cell line U87-MG was seeded at a density of 6×10^4 cells/well on the top of a Matrigel-coated filter (Transwell invasion chambers, Corning), treated with 4 μM of the compound AON-MG23-02 of the present invention, […] of the EGFR inhibitor Osimertinib, 100 μM of the ANO1 inhibitor CaCCinh-A01, or a combination of 4 μM of Osimertinib and 100 μM of CaCCinh-A01, and then cultured at 37 °C in a CO2 incubator for 16 hours. After the culturing was completed, the cells were fixed and stained using a Diff-Quick stain kit (Sysmex, Kobe, Japan). Images of the stained cells were taken under a microscope, the cells were counted using Image J software, and statistical analysis was then performed.

[3] = system: U87-MG; experiment: Matrigel Transwell invasion (metastasis inhibition) in human glioblastoma; assay type: cell-based; conditions: 0, 1, 2, and 4 μM, 24 hours, compared to the untreated control
Description: A human glioblastoma cell line U87-MG was seeded at a density of 8×10^4 cells/well on Matrigel-coated filters (Transwell invasion chambers, Corning), and the cells were then treated with the compound (AON-MG23-01 or AON-MG23-02; each at 0, 1, 2, and 4 μM) of the present invention, and cultured at 37 °C in a CO2 incubator for 24 hours. After the culturing was completed, the cells were fixed and stained using the Diff-Quick Stain kit (Sysmex, Kobe, Japan). Images of the stained cells were taken under a microscope, the cells were counted using Image J software, and statistical analysis was then performed.

[4] = system: U87-MG cells; experiment: CCK assay of cell proliferation inhibition in human glioblastoma cells; assay type: cell-based; conditions: 0, 1, 2, and 4 μM, 48 hours, 450 nm
Description: Human glioblastoma cell line U87-MG cells were seeded at a density of 1×10^4 cells/well in a 96-well plate and cultured for 24 hours. Thereafter, the cells were treated with DMSO as a control and the compound AON-MG23-01 or AON-MG23-02 of the present invention, and then cultured for 48 hours. The compound of the present invention was treated at various concentrations of 0, 1, 2, and 4 μM. 10 μL of a CCK reagent was added and reacted for an hour, and the absorbance was then measured at 450 nm.

[5] = system: ANO1; experiment: Western blot comparison with EGFR inhibitor and ANO1 inhibitor: ANO1 expression; assay type: cell-based, human; conditions: U87-MG; 4 μM AON-MG23-02; 48 hours; vs untreated, 2 μM Osimertinib, 100 μM CaCCinh-A01, and their combination
Description: as §1

[6] = system: pEGFR; experiment: Western blot comparison with EGFR inhibitor and ANO1 inhibitor: pEGFR expression; assay type: cell-based, human; conditions: U87-MG; 4 μM AON-MG23-02; 48 hours; vs untreated, 2 μM Osimertinib, 100 μM CaCCinh-A01, and their combination
Description: as §1

[7] = system: EGFR; experiment: Western blot: AON-MG23-02 derivatives, EGFR protein expression in glioblastoma cell line; assay type: cell-based, human; conditions: U87-MG; 0, 8, 16, and 32 μM; 48 hours; compared to the untreated control
Description: (§2) The inhibitory effects of AON-MG23-02 derivatives AON-MG23-05, AON-MG23-06, AON-MG23-07, and AON-MG23-08 on ANO1 and EGFR protein expression in a glioblastoma cell line were compared. A human glioblastoma cell line U87-MG was seeded at a density of 100×10^4 cells/dish in a 60 mm dish, and cultured for 24 hours. Thereafter, the cells were treated with 0, 8, 16, and 32 μM of the AON-MG23-05, AON-MG23-06, AON-MG23-07, and AON-MG23-08 derivatives, respectively, and cultured for 48 hours. The cultured cells were harvested, and the harvested cells were lysed for Western blotting. An anti-ANO1 antibody (Abcam, ab53212), an anti-pEGFR antibody (Cell Signaling, #4407S), an anti-EGFR antibody (Cell Signaling, #4267S), and an anti-ACTIN antibody (sigma, #A2066) were used as antibodies for Western blotting. Protein concentration was quantified using the […] (a protein quantitation assay, a bovine serum albumin assay) (Pierce, Cat. 23225). […] The amount of each protein was quantified and analyzed using Image J software.

[8] = system: ANO1; experiment: Western blot: AON-MG23-02 derivatives, ANO1 protein expression in glioblastoma cell line; assay type: cell-based, human; conditions: U87-MG; 0, 8, 16, and 32 μM; 48 hours; compared to the untreated control
Description: as §2

[9] = system: U87-MG; experiment: Matrigel invasion (metastasis inhibition) of AON-MG23-02 derivatives in human glioblastoma; assay type: cell-based; conditions: 0, 8, 16, and 32 μM, 24 hours, compared to the untreated control
Description: A human glioblastoma cell line U87-MG was seeded at a density of 8×10^4 cells/well on the top of a Matrigel-coated filter (Transwell invasion chambers, Corning), and then treated with 0, 8, 16, and 32 μM of each of the compound derivatives AON-MG23-05, AON-MG23-06, AON-MG23-07, and AON-MG23-08 of the present invention, and cultured at 37 °C in a CO2 incubator for 24 hours. After the culturing was completed, the cells were fixed and stained using a Diff-Quick stain kit (Sysmex, Kobe, Japan). Images of the stained cells were taken under a microscope, the cells were counted using Image J software, and statistical analysis was then performed.

| SMILES | degree of penetration into Matrigel [3] | inhibition of proliferation of U87-MG cells [4] | expression of EGFR protein (derivatives) [7] | expression of ANO1 protein (derivatives) [8] | degree of penetration into Matrigel (derivatives) [9] | also measured |
| --- | --- | --- | --- | --- | --- | --- |
| COc1cc(N2CCC(N(C)C)CC2)ccc1Nc1ncc(Cl)c(Nc2ccccc2N(C2CC2)S(C)(=O)=O)n1 [AON-MG23-02, N-(2-((5-chloro-2-((4-(4-(dimethylamino)piperidin-1-yl)-2-methoxyphenyl)amino)pyrimidin-4-yl)amino)phenyl)-N-cyclopropylmethanesulfonamide] | reduced degree of penetration into Matrigel compared to the untreated control | inhibits the proliferation of U87-MG cells | – | – | – | expression of EGFR protein (comparison) [1]: reduces the expression of ANO1, EGFR, and pEGFR proteins compared to the untreated control, the EGFR inhibitor-treated group, the ANO1 inhibitor-treated group, and the EGFR inhibitor and ANO1 inhibitor combination-treated group; degree of penetration into Matrigel (comparison with EGFR inhibitor and ANO1 inhibitor) [2]: reduced degree of penetration into Matrigel compared to the untreated control, the EGFR inhibitor-treated group, and the ANO1 inhibitor-treated group; expression of ANO1 protein (comparison) [5]: reduces the expression of ANO1, EGFR, and pEGFR proteins compared to the untreated control, the EGFR inhibitor-treated group, the ANO1 inhibitor-treated group, and the EGFR inhibitor and ANO1 inhibitor combination-treated group; expression of pEGFR protein (comparison) [6]: reduces the expression of ANO1, EGFR, and pEGFR proteins compared to the untreated control, the EGFR inhibitor-treated group, the ANO1 inhibitor-treated group, and the EGFR inhibitor and ANO1 inhibitor combination-treated group |
| O=C1c2ccccc2CN1Cc1ccc(CCN(CCO)Cc2ccc3ccccc3c2)cc1 [AON-MG23-05, 2-(4-(2-((2-hydroxyethyl)(naphthalen-2-ylmethyl)amino)ethyl)benzyl)isoindolin-1-one] | – | – | reduced expression of ANO1 and EGFR proteins compared to the untreated control | reduced expression of ANO1 and EGFR proteins compared to the untreated control | reduced degree of penetration into Matrigel compared to the untreated control | – |
| CCN(Cc1ccc2ccccc2c1)CC(O)c1ccc(CN2Cc3ccccc3C2=O)cc1 (stereo not shown) [AON-MG23-06, 2-(4-(2-(ethyl(naphthalen-2-ylmethyl)amino)-1-hydroxyethyl)benzyl)isoindolin-1-one] | – | – | – | – | reduced degree of penetration into Matrigel compared to the untreated control | – |
| COc1cc(N2CCC(N3CCN(C)CC3)CC2)ccc1Nc1ncc(Cl)c(Nc2ccccc2N(C2CC2)S(C)(=O)=O)n1 [AON-MG23-01, N-(2-((5-chloro-2-((2-methoxy-4-(4-(4-methylpiperazin-1-yl)piperidin-1-yl)phenyl)amino)pyrimidin-4-yl)amino)phenyl)-N-cyclopropylmethanesulfonamide] | reduced degree of penetration into Matrigel compared to the untreated control | inhibits the proliferation of U87-MG cells | – | – | – | – |
| NC(=O)N(CCc1ccc(CN2Cc3ccccc3C2=O)cc1)Cc1ccc2ccccc2c1 [AON-MG23-08, 1-(naphthalen-2-ylmethyl)-1-(4-((1-oxoisoindolin-2-yl)methyl)phenethyl)urea] | – | – | reduced expression of ANO1 and EGFR proteins compared to the untreated control | reduced expression of ANO1 and EGFR proteins compared to the untreated control | reduced degree of penetration into Matrigel compared to the untreated control | – |
| O=C1c2ccccc2CN1Cc1ccc(CCP(=O)(Cc2ccc3ccccc3c2)Cc2ccc3ccccc3c2)cc1 [AON-MG23-07, 2-(4-(2-(bis(naphthalen-2-ylmethyl)phosphoryl)ethyl)benzyl)isoindolin-1-one] | – | – | – | – | reduced degree of penetration into Matrigel compared to the untreated control | – |
